Measured values as given in PMC11785709, “Angelica gigas Nakai (Korean Dang-gui) Root Alcoholic Extracts in Health Promotion and Disease Therapy – active Phytochemicals and In Vivo Molecular Targets” (Pharmaceutical Research, 2025).
Where “and” joins values, the source holds several entries; their conditions need not be identical. Equal entries are not always repeated. Where two headings read alike, the source gives them in different places.

Columns and labels:
[1] = system: MAO-B; parameters: method as in PMID 28109809; settings: screened at 10 μM; cited from earlier work
[2] = cited from earlier work; for Cmax: 4.6 g AGN root powder per subject (0.055 mg D, 0.184 mg DA, 1.095 mg nodakenin); for t1/2 / tmax: 4.6 g AGN root powder per subject
[3] = system: human MAO-A; parameters: method as in PMID 28109809; settings: cited from earlier work; for IC50: read-out: MAO-A inhibition IC50
[4] = biological target: T1, DRAK2 (STK17B) (Homo sapiens, UniProt O94768); test: KINOMEscan competition binding; settings: for Kd: validation Kd titration, 0.003 to 50 µM, two values per cell
T1 construct: purchased Eurofins DiscoverX (KINOMEscan)
T1 sequence (O94768 1-372): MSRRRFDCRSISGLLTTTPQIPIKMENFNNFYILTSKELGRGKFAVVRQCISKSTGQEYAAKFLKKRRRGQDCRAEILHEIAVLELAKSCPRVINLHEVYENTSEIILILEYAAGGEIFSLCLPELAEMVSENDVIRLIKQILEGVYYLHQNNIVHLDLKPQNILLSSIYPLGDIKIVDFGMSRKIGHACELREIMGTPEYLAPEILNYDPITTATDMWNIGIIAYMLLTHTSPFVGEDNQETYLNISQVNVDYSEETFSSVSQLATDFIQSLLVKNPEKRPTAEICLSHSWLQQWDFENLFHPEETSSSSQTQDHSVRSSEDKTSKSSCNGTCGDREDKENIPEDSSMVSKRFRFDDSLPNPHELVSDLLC
Procedure: (§1) Two distinct platforms were used for initial screening with 50 µM DOH vs. DMSO vehicle. The first was the Eurofins DiscoverX KINOMEscan® (Freemont, CA USA) profiling platform, which employed a proprietary active site-directed competition binding assay to quantitatively measure interactions between a test compound (i.e., DOH) and 468 human protein kinases and disease relevant mutant variants either directly (sterically) or indirectly (allosterically) to prevent a kinase binding to its immobilized substrate (ligand). The top 8 hits were subjected to secondary screening verification by DOH concentration-titration for dissociation constant (Kd). For ROCK1 and ROCK2, DA was chosen for Kd titration as well, because it is ~ 10 × higher than D in peripheral circulation due to its resistance to hydrolysis by carboxyesterase-2 (Fig. 1C).

[5] = biological target: T2, MKNK2 (Homo sapiens, UniProt Q9HBH9); test: KINOMEscan competition binding; settings: for Kd: validation Kd titration, 0.003 to 50 µM, two values per cell
T2 construct: purchased Eurofins DiscoverX (KINOMEscan)
T2 sequence (Q9HBH9 whole entry): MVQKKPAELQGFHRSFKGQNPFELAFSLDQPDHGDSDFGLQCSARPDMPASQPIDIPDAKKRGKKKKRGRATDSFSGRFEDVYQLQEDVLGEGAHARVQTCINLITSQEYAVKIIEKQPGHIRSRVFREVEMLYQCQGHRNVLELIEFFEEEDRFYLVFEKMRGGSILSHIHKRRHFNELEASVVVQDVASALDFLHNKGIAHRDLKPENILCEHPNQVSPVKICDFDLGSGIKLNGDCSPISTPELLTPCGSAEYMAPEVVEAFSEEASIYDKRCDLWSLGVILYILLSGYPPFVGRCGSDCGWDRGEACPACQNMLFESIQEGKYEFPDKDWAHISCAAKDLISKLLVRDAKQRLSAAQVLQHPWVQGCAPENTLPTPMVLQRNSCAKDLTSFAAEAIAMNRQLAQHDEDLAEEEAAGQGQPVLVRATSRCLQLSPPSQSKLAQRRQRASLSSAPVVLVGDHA
Procedure: as §1

[6] = biological target: T3, ROCK1 (Homo sapiens, UniProt Q13464); test: Reaction Biology kinase activity inhibition; type: biochemical; parameters: purchased Reaction Biology (Malvern, PA)
T3 sequence (Q13464 whole entry): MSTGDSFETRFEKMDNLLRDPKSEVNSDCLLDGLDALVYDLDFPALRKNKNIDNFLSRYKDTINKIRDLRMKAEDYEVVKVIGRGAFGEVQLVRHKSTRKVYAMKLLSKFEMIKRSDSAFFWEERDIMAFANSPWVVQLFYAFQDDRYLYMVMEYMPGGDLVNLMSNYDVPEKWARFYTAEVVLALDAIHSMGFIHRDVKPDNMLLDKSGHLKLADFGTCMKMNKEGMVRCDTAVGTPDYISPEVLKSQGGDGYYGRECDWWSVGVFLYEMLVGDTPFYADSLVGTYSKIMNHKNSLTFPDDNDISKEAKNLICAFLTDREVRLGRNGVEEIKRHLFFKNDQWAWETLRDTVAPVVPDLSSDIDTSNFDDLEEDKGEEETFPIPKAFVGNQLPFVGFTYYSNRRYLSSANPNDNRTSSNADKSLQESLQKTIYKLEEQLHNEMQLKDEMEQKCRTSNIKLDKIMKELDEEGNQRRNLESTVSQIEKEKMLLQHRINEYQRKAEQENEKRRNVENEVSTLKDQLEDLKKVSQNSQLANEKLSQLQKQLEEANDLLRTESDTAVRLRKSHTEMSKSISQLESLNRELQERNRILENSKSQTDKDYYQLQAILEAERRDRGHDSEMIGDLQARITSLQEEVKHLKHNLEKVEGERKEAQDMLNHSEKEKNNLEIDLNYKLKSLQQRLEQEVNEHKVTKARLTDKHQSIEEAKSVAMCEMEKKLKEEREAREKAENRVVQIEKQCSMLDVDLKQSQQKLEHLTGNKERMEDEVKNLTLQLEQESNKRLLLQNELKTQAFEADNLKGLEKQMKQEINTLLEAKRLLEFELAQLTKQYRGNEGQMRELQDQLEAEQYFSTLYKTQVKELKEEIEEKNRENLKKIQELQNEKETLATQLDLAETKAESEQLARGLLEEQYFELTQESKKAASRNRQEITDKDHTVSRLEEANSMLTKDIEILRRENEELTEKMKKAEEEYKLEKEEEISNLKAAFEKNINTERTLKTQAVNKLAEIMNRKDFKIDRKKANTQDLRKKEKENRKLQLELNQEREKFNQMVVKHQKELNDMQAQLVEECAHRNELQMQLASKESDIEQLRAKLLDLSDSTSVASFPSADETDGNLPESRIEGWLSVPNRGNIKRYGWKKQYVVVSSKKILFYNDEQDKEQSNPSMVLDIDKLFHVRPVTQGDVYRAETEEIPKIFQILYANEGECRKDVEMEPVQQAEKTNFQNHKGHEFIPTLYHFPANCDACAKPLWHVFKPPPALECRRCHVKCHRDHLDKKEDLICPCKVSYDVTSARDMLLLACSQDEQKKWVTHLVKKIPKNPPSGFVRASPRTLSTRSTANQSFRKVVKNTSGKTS
Description: (§2) The second screening was the Reaction Biology® (Malvern, PA) kinase activity inhibition tests, which screened for more than 600 protein kinases and lipid kinases, using miniaturized radioisotope-based assay platform with γ-^33P-ATP, followed by confirmation with IC50 kinase profiling service with 5 concentrations of test compound (i.e., DOH and DA) with curve fitting.

[7] = biological target: T4, ROCK2 (Homo sapiens, UniProt O75116); test: Reaction Biology kinase activity inhibition; type: biochemical; parameters: purchased Reaction Biology (Malvern, PA)
T4 sequence (O75116 whole entry): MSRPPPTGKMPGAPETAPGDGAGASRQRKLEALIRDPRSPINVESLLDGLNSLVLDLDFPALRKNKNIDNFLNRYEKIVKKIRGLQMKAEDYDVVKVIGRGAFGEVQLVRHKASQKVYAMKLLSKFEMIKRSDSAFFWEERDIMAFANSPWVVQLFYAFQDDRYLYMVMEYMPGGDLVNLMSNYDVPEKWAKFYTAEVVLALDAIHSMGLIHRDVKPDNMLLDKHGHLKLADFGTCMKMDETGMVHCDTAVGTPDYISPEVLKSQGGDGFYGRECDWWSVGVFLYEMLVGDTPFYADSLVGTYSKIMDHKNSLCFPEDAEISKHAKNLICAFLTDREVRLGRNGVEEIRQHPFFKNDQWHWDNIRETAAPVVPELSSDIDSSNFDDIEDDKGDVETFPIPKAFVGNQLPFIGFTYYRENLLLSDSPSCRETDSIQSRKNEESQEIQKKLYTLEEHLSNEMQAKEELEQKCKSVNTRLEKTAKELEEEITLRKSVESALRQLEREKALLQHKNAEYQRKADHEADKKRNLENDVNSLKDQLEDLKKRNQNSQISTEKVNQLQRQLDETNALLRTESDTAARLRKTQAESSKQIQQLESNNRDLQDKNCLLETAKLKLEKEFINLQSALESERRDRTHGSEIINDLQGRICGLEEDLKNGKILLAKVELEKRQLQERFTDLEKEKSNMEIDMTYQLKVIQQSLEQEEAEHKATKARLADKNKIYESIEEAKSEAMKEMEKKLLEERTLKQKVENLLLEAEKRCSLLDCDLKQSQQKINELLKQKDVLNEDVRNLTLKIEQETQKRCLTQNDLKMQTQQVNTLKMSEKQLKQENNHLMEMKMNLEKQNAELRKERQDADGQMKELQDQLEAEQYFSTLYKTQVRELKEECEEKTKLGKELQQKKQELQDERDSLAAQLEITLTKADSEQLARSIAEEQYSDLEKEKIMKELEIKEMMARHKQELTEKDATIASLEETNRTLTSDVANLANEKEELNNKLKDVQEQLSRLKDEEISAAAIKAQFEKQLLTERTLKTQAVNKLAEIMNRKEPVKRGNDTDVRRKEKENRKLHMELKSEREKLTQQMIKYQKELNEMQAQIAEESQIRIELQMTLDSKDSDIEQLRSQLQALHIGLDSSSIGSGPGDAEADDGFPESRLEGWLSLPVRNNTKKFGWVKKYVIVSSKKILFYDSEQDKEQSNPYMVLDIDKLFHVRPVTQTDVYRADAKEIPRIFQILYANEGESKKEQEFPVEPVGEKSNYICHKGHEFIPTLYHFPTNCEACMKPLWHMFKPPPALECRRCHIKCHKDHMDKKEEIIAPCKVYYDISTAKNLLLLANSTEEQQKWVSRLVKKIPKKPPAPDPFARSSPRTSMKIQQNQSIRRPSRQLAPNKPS
Description: as §2

[8] = biological target: T3, ROCK1; test: KINOMEscan competition binding; parameters: purchased Eurofins DiscoverX (KINOMEscan)
Procedure: as §1

[9] = biological target: T4, ROCK2; test: KINOMEscan competition binding; parameters: purchased Eurofins DiscoverX (KINOMEscan)
Procedure: as §1

[10] = biological target: T5, CAMKK1 (Homo sapiens, UniProt Q8N5S9); test: Reaction Biology kinase activity inhibition; type: biochemical; settings: for IC50: validation titration, 6.25 to 100 µM, Hotspot confirmation
T5 construct: purchased Reaction Biology (Malvern, PA)
T5 sequence (Q8N5S9 whole entry): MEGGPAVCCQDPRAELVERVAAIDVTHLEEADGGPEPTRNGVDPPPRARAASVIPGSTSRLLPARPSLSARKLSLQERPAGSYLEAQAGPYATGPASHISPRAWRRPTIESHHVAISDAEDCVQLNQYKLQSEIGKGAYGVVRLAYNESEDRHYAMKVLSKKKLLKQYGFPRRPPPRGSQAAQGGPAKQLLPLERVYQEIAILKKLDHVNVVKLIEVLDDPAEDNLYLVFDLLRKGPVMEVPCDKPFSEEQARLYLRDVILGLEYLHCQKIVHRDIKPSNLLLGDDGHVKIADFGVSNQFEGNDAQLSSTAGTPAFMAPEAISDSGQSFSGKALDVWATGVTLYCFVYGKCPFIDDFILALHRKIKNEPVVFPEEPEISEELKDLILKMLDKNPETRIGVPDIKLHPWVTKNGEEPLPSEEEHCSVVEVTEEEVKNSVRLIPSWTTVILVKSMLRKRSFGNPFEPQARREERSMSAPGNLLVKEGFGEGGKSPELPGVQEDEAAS
Description: as §2

[11] = biological target: T6, BRSK2 (Homo sapiens, UniProt Q8IWQ3); test: Reaction Biology kinase activity inhibition; type: biochemical; settings: for IC50: validation titration, 6.25 to 100 µM, Hotspot confirmation
T6 construct: purchased Reaction Biology (Malvern, PA)
T6 sequence (Q8IWQ3 1-736): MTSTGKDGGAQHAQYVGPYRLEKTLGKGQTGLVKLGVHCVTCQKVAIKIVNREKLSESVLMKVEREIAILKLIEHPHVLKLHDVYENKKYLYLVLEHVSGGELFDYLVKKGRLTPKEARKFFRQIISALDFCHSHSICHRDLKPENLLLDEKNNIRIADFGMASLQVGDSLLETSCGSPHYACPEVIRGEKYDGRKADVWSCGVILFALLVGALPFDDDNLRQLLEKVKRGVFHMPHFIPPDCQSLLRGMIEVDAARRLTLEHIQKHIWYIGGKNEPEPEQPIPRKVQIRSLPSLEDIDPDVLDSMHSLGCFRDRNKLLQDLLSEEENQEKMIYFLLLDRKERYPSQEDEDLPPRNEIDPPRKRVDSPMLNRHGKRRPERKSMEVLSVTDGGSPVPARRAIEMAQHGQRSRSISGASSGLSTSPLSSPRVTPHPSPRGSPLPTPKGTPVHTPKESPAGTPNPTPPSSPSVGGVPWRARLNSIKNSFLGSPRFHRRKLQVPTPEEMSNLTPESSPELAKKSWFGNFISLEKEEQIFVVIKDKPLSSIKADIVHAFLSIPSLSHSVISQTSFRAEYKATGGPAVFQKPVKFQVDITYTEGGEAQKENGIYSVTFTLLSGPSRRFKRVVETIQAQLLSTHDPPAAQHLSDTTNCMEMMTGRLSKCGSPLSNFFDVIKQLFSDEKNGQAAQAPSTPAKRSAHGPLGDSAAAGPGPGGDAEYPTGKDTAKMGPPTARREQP
Description: as §2

[12] = biological target: T7, DDR1 (Homo sapiens, UniProt Q08345); test: Reaction Biology kinase activity inhibition; type: biochemical; settings: for IC50: validation titration, 6.25 to 100 µM, Hotspot confirmation
T7 construct: purchased Reaction Biology (Malvern, PA)
T7 sequence (Q08345 19-913): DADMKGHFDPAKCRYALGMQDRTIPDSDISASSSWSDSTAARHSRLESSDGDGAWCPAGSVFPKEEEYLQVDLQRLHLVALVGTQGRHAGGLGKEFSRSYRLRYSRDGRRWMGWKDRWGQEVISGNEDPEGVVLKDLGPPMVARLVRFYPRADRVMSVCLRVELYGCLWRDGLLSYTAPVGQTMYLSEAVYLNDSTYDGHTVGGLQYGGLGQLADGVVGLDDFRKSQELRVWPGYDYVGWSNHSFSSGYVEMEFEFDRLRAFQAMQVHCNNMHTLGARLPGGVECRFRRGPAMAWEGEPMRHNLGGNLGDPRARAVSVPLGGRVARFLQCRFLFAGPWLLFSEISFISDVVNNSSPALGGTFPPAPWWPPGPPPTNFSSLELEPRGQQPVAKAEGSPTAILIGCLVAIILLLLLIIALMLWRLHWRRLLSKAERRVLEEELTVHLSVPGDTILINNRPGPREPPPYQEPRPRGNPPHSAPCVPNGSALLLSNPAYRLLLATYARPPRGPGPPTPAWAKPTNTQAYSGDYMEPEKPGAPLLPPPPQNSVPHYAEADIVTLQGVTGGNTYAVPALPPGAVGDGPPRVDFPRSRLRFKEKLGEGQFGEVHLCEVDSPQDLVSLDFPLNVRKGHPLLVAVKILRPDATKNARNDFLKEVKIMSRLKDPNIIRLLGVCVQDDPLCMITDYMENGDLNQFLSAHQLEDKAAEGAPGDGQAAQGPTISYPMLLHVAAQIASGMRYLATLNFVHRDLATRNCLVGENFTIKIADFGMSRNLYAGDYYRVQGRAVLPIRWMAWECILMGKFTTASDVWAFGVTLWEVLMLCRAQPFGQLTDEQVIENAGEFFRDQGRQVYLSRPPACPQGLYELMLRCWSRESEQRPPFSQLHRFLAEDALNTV
Description: as §2

[13] = biological target: T8, PDK2/PDHK2 (Homo sapiens, UniProt Q15119); test: Reaction Biology kinase activity inhibition; type: biochemical; settings: for IC50: validation titration, 6.25 to 100 µM, Hotspot confirmation
T8 construct: purchased Reaction Biology (Malvern, PA)
Description: as §2

[14] = Reaction Biology, Inc, Table 1, read-out: ROCK1 IC50
[15] = validation titration, 6.25 to 100 µM, Hotspot confirmation, read-out: IC50
[16] = Reaction Biology, Inc, Table 1, read-out: ROCK2 IC50
[17] = Eurofins DiscoveRx, Table 1, read-out: ROCK1 Kd
[18] = validation Kd titration, 0.003 to 50 µM, two values per cell, read-out: Kd
[19] = Eurofins DiscoveRx, Table 1, read-out: ROCK2 Kd
[20] = initial screening, DOH 50 µM, read-out: Substrate bound % Control
[21] = initial screening, DOH (50 µM), Data 1 and Data 2
[22] = initial screening, DOH (50 µM), Data 1 and Data 2, read-out: % Enzyme Activity (relative to DMSO controls)

C/C=C(/C)C(=O)O[C@H]1Cc2cc3ccc(=O)oc3cc2OC1(C)C [DA, decursinol angelate]
inhibitory activity on MAO-B [1]: lacked any inhibitory activity | Cmax [2]: 7.72 ng/mL | t1/2 [2]: 4.04 h | tmax [2]: 0.31 h | IC50 [3]: 12.8 µM | Kd [4]: > 50 µM | Kd [5]: > 50 µM | IC50 [6, 14]: 18 µM | IC50 [6, 15]: 16 µM and 20 µM | IC50 [7, 16]: 23 µM | IC50 [7, 15]: 22 µM | Kd [8, 17]: 2.1 µM | Kd [8, 18]: 1.9 µM and 2.3 µM | Kd [9, 19]: 5.6 µM | Kd [9, 18]: 5.4 µM and 5.8 µM | IC50 [10]: > 100 µM | IC50 [11]: > 100 µM | IC50 [12]: > 100 µM | IC50 [13]: > 100 µM

CC1(C)Oc2cc3oc(=O)ccc3cc2C[C@@H]1O [DOH, decursinol]
inhibitory activity on MAO-B [1]: lacked any inhibitory activity | Cmax [2]: 0.92 ng/mL | t1/2 [2]: 2.62 h | tmax [2]: 0.64 h | MAO-A initial screen ([3]; at 10 μM): failed the initial screen | IC50 [3]: > 10 µM | remaining binding at 50 µM [4, 20]: 24% | Kd [4]: 21 µM and 22 µM | remaining binding at 50 µM [5, 20]: 25% | Kd [5]: 20 µM and 25 µM | IC50 [6, 14]: 81 µM | DOH % Inhibition ([6]; initial screening, DOH 50 µM): 26.6% | inhibition at 50 µM ([6]; initial screening, DOH 50 µM): 27% | % Enzyme Activity (relative to DMSO controls) [6, 21]: 72.1% | remaining activity at 50 µM [6, 22]: 74.7% | IC50 [7, 16]: 85 µM | DOH % Inhibition ([7]; initial screening, DOH 50 µM): 43.2% | inhibition at 50 µM ([7]; initial screening, DOH 50 µM): 43% | % Enzyme Activity (relative to DMSO controls) [7, 21]: 56.1% | remaining activity at 50 µM [7, 22]: 57.5% | Kd [8, 17]: 7.5 µM | remaining binding at 50 µM [8, 20]: 12% | Kd [8, 18]: 7.3 µM and 7.6 µM | Kd [9, 19]: 14.5 µM | remaining binding at 50 µM [9, 20]: 21% | Kd [9, 18]: 14 µM and 15 µM | inhibition at 50 µM ([10]; initial screening, DOH 50 µM): 40.3% | % Enzyme Activity (relative to DMSO controls) [10, 21]: 59.3% | remaining activity at 50 µM [10, 22]: 60.1% | IC50 [10]: > 100 µM | inhibition at 50 µM ([11]; initial screening, DOH 50 µM): 46.8% | % Enzyme Activity (relative to DMSO controls) [11, 21]: 52.6% | remaining activity at 50 µM [11, 22]: 53.8% | IC50 [11]: > 100 µM | inhibition at 50 µM ([12]; initial screening, DOH 50 µM): 49% | % Enzyme Activity (relative to DMSO controls) [12, 21]: 49.7% | remaining activity at 50 µM [12, 22]: 52.3% | IC50 [12]: > 100 µM | inhibition at 50 µM ([13]; initial screening, DOH 50 µM): 39.7% | % Enzyme Activity (relative to DMSO controls) [13, 21]: 59.8% | remaining activity at 50 µM [13, 22]: 60.8% | IC50 [13]: > 100 µM
